In US11738097B2, “Curcuminoid chemotherapeutic drug carrier composition” (Imam Abdulrahman Bin Faisal University, priority 2018, dated 2023):

Experiments:
MCF7 cells = assay: Cell viability MTT assay; type: cell-based, human; settings: 10, 20, 40, 80, 100 μg/ml, 24 h
Experimental: (§1) Materials and Methods/Cell cultures: In this study, a human mammary adenocarcinoma cell line, MCF7, was used for in vitro testing. MCF7 cells were maintained in DMEM (Dulbecco's Modified Eagle Medium) (Gibco, life technologies) supplemented with 10% heat inactivated fetal bovine serum (HI-FBS) (Gibco, life technology), 1% Penicillin Streptomycin (100×-Gibco, life technology), and 1% MEM NEAA (MEM non-essential amino acids) (100×-Gibco, life technology). Cells were kept in a humidified incubator at 37° C. with 5% CO2. For the experimental setup, MCF7 cells were seeded on a 96-well plate at a density of 10,000 cells/well. On the next day, cells were shifted to the starve media (0.5% HI-FBS containing media) for 24 h before treatment. […]
(§2) Cell viability MTT Assay: The viability of cells was tested using 3-(4,5-dimethylthiazol-2-yl)-2,5-diphenyltetrazolium bromide (MTT) assay. […] The change in color intensity was measured at 570 nm wavelength using SYNERGY-neo2 BioTek ELISA reader. […] The reading of each triplicate was averaged and subtracted from the averaged MTT background control reading. […]
(§3) To investigate the cytotoxic effects of curcumin-loaded/Fe2O3 impregnated mesocellular foam silica nanoparticles, the inventors assessed cell viability using the MTT assay on MCF7 cells. […]

Cell viability MTT assay = type: cell-based, human; settings: human, MCF7 cells, maintained throughout the different concentrations (10-100 μg/ml), curcumin stock 390 μg/ml
Experimental: as §1, §2, §3

## COc1cc(/C=C/C(=O)CC(=O)/C=C/c2ccc(O)c(OC)c2)ccc1O [Curcumin]
MCF7 cells
  effect on cell viability (in words): significantly reduced cell viability
Cell viability MTT assay
  viability at 24 h: 66.6%
